Assay [1] can be described thus: Luminescence Cell-Based Dose Response HTS to Identify Inhibitors of 5'UTR Stem-Loop Driven Prion Protein mRNA Translation in H4 Neuroglioblastoma Cells. [Related pubchem assays: 1827 (Project Summary), 1813 (Primary HTS)]. The class given is functional.
Assay [2] in a line: alpha-synuclein stem-loop luciferase translation blockers – H4 neuroglioma cells, luminescence, confirmation (AID 1988). The class given is functional, cell-based.
The nature of assay [3]: luciferase reporter signal suppression in cells – H4 neuroglioma cells, luminescence, dose response (AID 1990). Format: functional, cell-based. On the technique in general: In a reporter assay the amount or activity of a reporter protein is the signal.
The target in assay [4] is T1, Zinc finger protein mex-5 (Caenorhabditis elegans, UniProt Q9XUB2).
T1 sequence (Q9XUB2 whole entry): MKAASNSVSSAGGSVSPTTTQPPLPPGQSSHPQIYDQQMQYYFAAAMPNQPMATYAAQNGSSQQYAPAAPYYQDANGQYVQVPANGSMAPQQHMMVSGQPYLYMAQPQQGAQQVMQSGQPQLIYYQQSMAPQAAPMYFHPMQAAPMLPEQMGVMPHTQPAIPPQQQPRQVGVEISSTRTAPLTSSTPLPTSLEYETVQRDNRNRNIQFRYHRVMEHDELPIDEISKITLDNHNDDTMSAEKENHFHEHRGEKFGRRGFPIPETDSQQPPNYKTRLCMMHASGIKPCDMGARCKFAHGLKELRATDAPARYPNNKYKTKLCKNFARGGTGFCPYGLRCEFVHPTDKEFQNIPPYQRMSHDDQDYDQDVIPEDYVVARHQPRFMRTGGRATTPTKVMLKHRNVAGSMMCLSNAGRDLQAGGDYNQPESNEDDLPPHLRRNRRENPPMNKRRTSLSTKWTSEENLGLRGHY
The experiment in a line: potency of MEX-5 RNA-binding blockers – biochemical, C. elegans, fluorescence polarization, dose response (AID 1960). (Polarisation of emitted light reports the rotation of a fluorescent probe.)

The target of assay [5] is T2, RNA-binding protein pos-1 (Caenorhabditis elegans, UniProt G5EF15).
T2 sequence (G5EF15 whole entry): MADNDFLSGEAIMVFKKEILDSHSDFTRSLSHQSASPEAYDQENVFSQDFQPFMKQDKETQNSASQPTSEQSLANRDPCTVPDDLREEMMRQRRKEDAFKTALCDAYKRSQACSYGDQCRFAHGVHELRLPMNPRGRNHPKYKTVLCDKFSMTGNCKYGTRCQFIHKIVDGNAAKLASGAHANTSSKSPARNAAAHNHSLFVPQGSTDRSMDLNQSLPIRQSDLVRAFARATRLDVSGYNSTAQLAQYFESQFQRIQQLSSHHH
The experiment in a line: disruptors of C. elegans POS-1 RNA interaction – biochemical, fluorescence polarization, dose response (AID 1964).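 Note: purified POS-1 fused to maltose binding protein made in E. coli; potency of compounds blocking POS-1 binding to fluorescent RNA.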

The nature of assay [6]: Luminescence Cell-Based Dose Confirmation HTS to Identify Inhibitors of Platelet Dense Granule Release. [Related pubchem assays: 1663 (Primary HTS), 1678 (Summary of Project)]. The class given is functional.
In assay [7] the target is Luciferin 4-monooxygenase (Photinus pyralis, UniProt P08659). The experiment in a line: inhibition of purified Photinus pyralis luciferase – biochemical, luminescence, dose response (AID 1891).
The next assay deals with Cytochrome P450 2C19 (Homo sapiens, UniProt P33261). The assay can be described thus: Cytochrome panel assay with activity outcomes. Panel member name: p450-cyp2c19 Compounds with AC50 equal or less than 10 uM are considered active. Format: functional. The note with it: read-out: AC50.
For another assay, the target named is T3, Cytochrome P450 1A2 (Homo sapiens, UniProt P05177).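 Note: PubChem cytochrome P450 panel assay, CYP1A2 panel member.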
T3 sequence (P05177 whole entry): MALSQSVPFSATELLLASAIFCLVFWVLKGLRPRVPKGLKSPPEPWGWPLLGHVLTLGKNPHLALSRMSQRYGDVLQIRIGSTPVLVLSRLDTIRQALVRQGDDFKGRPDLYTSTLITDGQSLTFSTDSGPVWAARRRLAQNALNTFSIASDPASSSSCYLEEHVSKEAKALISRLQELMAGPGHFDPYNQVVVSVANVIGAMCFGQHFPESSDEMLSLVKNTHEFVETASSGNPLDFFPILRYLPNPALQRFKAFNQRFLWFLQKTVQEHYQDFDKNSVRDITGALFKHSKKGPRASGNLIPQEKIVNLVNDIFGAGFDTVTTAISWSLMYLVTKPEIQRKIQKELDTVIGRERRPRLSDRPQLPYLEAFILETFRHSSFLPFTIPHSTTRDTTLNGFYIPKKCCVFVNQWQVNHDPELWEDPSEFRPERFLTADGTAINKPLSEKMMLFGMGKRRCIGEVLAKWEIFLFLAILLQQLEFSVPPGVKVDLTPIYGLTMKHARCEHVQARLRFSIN

The target of another assay is Cytochrome P450 3A4 (Homo sapiens, UniProt P08684).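 Note: CYP3A4 tested as one member of a cytochrome P450 panel screen.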
The test system of assay [8] is Streptococcus sp. 'group A'. The assay can be described thus: Streptococcus pyogenes SK(-)GAS viability under kanamycin – luminescence, BacTiterGlo, confirmation, counter-screen for streptokinase expression inhibitor project, dose response (AID 1900). The class given is functional, organism-based. A general note: A counterscreen serves to expose hits that act by an unwanted route or on another target.

For another assay, the system named is Streptococcus. The experiment in a line: GAS UMAA2166 growth inhibition – luminescence, BacTiterGlo, counter-screen for streptokinase expression inhibitor project, dose response (AID 1915).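 Note: potency for reduction of bacterial viability or growth.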 The class given is functional, organism-based.
The next assay has as its target T4, Streptokinase A (Streptococcus pyogenes serotype M1, UniProt P10520).
T4 sequence (P10520 whole entry): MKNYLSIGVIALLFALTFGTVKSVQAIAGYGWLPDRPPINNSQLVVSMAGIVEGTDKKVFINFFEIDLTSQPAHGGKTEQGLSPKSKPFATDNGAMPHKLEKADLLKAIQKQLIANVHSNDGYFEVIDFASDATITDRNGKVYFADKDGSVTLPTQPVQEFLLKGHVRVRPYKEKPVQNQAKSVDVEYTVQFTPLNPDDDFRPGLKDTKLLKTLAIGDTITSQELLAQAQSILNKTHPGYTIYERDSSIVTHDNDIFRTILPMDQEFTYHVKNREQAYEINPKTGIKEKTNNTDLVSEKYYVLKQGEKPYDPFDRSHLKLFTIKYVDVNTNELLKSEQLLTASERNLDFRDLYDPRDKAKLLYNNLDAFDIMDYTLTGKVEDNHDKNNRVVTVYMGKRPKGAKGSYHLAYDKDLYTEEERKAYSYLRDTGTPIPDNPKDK
The experiment in a line: viability-normalized secreted streptokinase activity reduction – plasminogen activation absorbance, OD405, dose response (AID 1914).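 Note: secreted streptokinase activity via plasminogen activation per viability signal from cell pellet.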 The class given is functional, Streptococcus pyogenes M1 GAS.

Assay [9] can be described thus: NIH3T3 cell viability loss – ATP luminescence, mouse fibroblasts, counter-screen, dose response (AID 2010).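 Note: cells exposed to compound for about 90 hours before reading.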 The class given is functional, cell-based.
A short description of assay [10]: Trypanosoma cruzi growth suppression in host cells – NIH3T3 host cells, beta-gal luminescence, confirmation (AID 2044).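 Note: intracellular parasites grown in NIH/3T3 mouse fibroblasts as host cells; luminescent beta-galactosidase reporter signal from transgenic T. cruzi replicating inside host cells; inhibitors lower the luminescence signal.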 The class given is functional, cell-based.
For a further assay, the target named is Cytochrome P450 2C9 (Homo sapiens, UniProt P11712).

The structures appear in SMILES notation. Activity calls are given as the source filed them.

Sequence of Luciferin 4-monooxygenase (P08659 whole entry): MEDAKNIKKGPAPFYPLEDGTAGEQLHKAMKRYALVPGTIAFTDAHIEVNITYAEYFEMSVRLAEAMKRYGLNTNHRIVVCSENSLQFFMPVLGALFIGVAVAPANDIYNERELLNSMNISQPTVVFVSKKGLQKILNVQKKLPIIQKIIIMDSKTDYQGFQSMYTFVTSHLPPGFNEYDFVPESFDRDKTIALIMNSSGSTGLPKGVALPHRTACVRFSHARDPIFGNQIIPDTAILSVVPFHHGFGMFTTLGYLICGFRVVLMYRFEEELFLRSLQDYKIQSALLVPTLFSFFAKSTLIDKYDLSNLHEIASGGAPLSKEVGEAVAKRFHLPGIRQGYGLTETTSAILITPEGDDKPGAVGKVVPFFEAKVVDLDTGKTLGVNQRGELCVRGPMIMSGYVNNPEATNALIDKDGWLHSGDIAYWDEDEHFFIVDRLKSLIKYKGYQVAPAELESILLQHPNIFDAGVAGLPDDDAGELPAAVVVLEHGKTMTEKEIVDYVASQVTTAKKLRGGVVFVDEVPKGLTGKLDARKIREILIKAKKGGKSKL
Sequence of Cytochrome P450 3A4 (P08684 whole entry): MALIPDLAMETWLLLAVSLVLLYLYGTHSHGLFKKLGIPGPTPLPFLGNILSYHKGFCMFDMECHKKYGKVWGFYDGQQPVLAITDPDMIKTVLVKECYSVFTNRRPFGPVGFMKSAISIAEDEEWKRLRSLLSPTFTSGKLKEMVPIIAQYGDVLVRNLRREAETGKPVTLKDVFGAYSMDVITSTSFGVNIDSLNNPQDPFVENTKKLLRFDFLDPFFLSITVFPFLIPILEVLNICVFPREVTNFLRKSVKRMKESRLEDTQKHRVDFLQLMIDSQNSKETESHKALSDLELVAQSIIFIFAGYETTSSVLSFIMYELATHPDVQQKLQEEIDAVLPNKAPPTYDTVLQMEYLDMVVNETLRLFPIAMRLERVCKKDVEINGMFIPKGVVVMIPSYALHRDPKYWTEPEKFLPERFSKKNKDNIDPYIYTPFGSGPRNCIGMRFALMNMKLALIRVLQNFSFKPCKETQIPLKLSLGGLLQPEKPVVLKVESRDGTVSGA
Sequence of Cytochrome P450 2C9 (P11712 whole entry): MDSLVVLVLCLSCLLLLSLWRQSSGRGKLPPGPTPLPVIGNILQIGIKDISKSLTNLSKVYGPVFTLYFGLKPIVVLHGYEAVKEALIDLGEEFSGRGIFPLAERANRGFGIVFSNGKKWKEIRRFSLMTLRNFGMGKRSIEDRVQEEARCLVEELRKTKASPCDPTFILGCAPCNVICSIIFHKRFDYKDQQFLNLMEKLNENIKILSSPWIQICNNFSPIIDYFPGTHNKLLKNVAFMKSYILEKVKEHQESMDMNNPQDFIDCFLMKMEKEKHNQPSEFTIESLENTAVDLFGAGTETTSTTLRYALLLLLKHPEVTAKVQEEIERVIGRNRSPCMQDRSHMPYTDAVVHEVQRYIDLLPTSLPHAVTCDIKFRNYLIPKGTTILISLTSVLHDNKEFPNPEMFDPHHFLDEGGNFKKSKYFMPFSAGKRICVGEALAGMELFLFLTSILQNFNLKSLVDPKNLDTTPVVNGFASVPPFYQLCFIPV
Sequence of Cytochrome P450 2C19 (P33261 whole entry): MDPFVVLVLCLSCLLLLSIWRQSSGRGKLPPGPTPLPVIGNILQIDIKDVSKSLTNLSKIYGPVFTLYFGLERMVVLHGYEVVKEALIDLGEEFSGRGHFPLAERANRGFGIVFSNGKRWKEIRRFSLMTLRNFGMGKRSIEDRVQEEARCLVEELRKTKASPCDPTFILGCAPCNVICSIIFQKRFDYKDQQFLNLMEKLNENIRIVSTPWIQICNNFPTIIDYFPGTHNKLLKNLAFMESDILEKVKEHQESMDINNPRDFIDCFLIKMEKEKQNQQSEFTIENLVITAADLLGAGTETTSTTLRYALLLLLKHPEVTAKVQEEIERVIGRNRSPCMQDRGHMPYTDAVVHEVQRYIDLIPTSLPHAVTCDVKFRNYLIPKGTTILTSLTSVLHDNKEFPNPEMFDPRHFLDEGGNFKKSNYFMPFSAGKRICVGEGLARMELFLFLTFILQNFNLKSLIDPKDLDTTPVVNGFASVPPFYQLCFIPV

In the case of `Cc1csc(NC(=O)c2cc3c(s2)CCCCC3)n1`, the 50% effective concentration (EC50) – broadly, the concentration at which the effect is half-maximal – in [1] is 2.57 µM (active); in assay [2], 3.58 µM (active).

On to `O=C(NC1CC1)C1=C[C@@H](c2coc3ccccc3c2=O)C[C@@H](OCc2ccc(CO)cc2)O1`, for which the EC50 in assay [1], in assay [2] and in [3] was > 120 µM (not active) each time.

Consider `CC1CCN(S(=O)(=O)c2ccc3c(c2)N(CC(=O)N(C)Cc2ccco2)C(=O)CO3)CC1`, for which the results for the EC50 in assay [1], in assay [2] and in assay [3] were > 120 µM (not active), 21.2 µM (active) and > 120 µM (not active), respectively.

With `CC(=O)N/C=C1\C(=O)N(C)C(=O)C(C#N)=C1C`, the EC50 was 34.9 µM (active) in assay [4] and 36.1 µM (active) in assay [5].

Take `O=Cc1cn(Cc2ccc(F)cc2Cl)c2ccccc12`: the values for the EC50 in assay [1], in assay [2] and in assay [3] were 16.8 µM (active), 12.4 µM (active) and 16.2 µM (active), respectively.

For `CC(=O)N(Cc1c(C#N)c2ccccc2n1C)c1ccccc1`, the EC50 in [6] and in assay [7] was > 112 µM (not active) each time.

In the case of `O=C(COC(=O)c1ccc(Cl)c(S(=O)(=O)NCc2ccccc2)c1)NCC1CCCO1` (centres undefined), the EC50 in [6] and in [7] was > 112 µM (not active) in each case.

Turning to `Cc1sc(-n2c(C)cc(C=C3C(=O)NC(=O)NC3=O)c2C)c(C#N)c1C`, the EC50 in [4] and in assay [5] was > 300 µM (not active) in each case.

For `CCOC(=O)N1CCN(S(=O)(=O)c2ccc(C(=O)Nc3ccc(F)cc3F)cc2)CC1`, the AC50 (usually the concentration at which the activity in the assay is half-maximal) was 25.1 µM (inconclusive) at Cytochrome P450 2C19, 6.31 µM (inconclusive) at Cytochrome P450 1A2 and 14.1 µM (inconclusive) at Cytochrome P450 3A4. In addition, the values for the EC50 in assay [1], in assay [2] and in [3] were > 120 µM (not active), 7.91 µM (active) and 10.9 µM (active), respectively.

Regarding `NC(=O)c1ccc[n+](Cc2ccccc2)c1`, the EC50 in assay [6] and in [7] was > 112 µM (not active) each time.

On to `CC(C)(C)c1cc(C(=O)Nc2ccc(F)cc2)n(Cc2ccc(F)cc2)n1`, for which the figures for the half-maximal effective concentration (EC50) (in [8]; in the assay on Streptococcus; on Streptokinase A) were 7.02 µM (active), 10.3 µM (active) and 2.85 µM (active), respectively.

For the compound `CCOC(=O)c1cnc2c(OC)cccc2c1N1CC(C)CC(C)C1` (centres undefined), the EC50 in [1] is > 120 µM (not active); in assay [2], 14.4 µM (active); in [3] it was 13.9 µM (active).

In the case of `COc1ccc(CNCC(O)(c2ccc(Cl)cc2)c2ccc(Cl)cc2)cc1`, the EC50 in assay [8] was 3.01 µM (active); in the assay on Streptococcus, 17.9 µM (active); on Streptokinase A, 19.7 µM (active).

With `CC(C)(C)C(Cn1ccnc1)NC(=O)c1ccc2nc(C3CC3)oc2c1` (centres undefined), the EC50 in assay [6] and in [7] was > 112 µM (not active) in each case.

As for `COc1ccc(C2=Nn3c(nnc3-c3cc(C)[nH]n3)SC2)cc1`, the EC50 in [6] and in assay [7] was > 112 µM (not active) each time.

Turning to `NC(=O)c1cc(C(=O)Cc2ccccc2)c[nH]1`, the EC50 in [8] is 2.27 µM (active); in the assay with Streptococcus, > 150 µM (not active); at Streptokinase A, 107 µM (active).

Consider `COc1ccc(CN2CCCC(C(=O)c3ccc(Cl)cc3)C2)cc1Cn1cccn1` (centres undefined), for which the EC50 in assay [1], in assay [2] and in [3] was > 120 µM (not active) throughout.

With `Cc1c([N+](=O)[O-])c(N)nn1C`, the concentration giving a half-maximal response (EC50) in assay [1], in assay [2] and in assay [3] was > 120 µM (not active) in each case.

As for `Cc1ccc(S(=O)(=O)NNC(=O)c2ccccc2-n2cccc2)cc1`, the EC50 in assay [1], in assay [2] and in [3] was > 120 µM (not active) in each case.

`COc1ccc(-c2cc(C(F)(F)F)nc(NCc3cccs3)n2)cc1`: the EC50 in assay [9] was > 60 µM (not active); in [8] it was 3.73 µM (active); in the assay on Streptococcus, > 150 µM (not active); on Streptokinase A, 13.8 µM (active); in [10], 2.19 µM (active).

In the case of `COc1cc(C(=O)NC(=S)Nc2ccc(Cc3ccncc3)cc2)cc(OC)c1OC`, the EC50 in [8] was 2.84 µM (active); in the assay on Streptococcus it was 25 µM (active); at Streptokinase A, > 150 µM (not active).

For the compound `O=C(Nc1ccc2oc(-c3ccccc3)nc2c1)C1CCCO1` (centres undefined), the EC50 in [6] is 25.1 µM (active); in assay [7], 70.4 µM (active).

Regarding `CC(N)Cc1ccccc1Sc1ccc(O)cc1` (centres undefined), the EC50 in [6] and in [7] was > 112 µM (not active) in each case. At Cytochrome P450 2C9, the AC50 was 17.8 µM (inconclusive).

For the compound `COc1ccccc1N1CCN(C(=O)/C=C/c2c(Cl)nc3ccccn23)CC1`, the EC50 in assay [8] was 1.25 µM (active); in the assay with Streptococcus, 12.7 µM (active); on Streptokinase A, > 150 µM (not active).

As for `Cc1ccccc1C(=O)Oc1cccc(Nc2ncnc3ccccc23)c1`, the EC50 is 5.76 µM (active) in [8], > 150 µM (not active) in the assay with Streptococcus and 34.6 µM (active) on Streptokinase A.

Take `COc1cccc(C(=O)c2cc3ccc(O)cc3oc2=O)c1`: the concentration giving a half-maximal response (EC50) in assay [6] was 1.28 µM (active); in assay [7] it was 0.571 µM (active).

On to `Cc1ccc(-c2cc(N)n(Cc3ccc(Cl)cc3)n2)cc1`, for which the EC50 in assay [6] and in assay [7] was > 112 µM (not active) in each case.

For the compound `Cc1ccnn1CC(=O)N/N=C/c1c[nH]nc1-c1ccccc1`, the EC50 in assay [6] and in assay [7] was > 112 µM (not active) in each case.

Consider `C/C(=N\NC(=O)C1(C)CC1(Br)Br)c1ccc(NC(=O)c2ccc(C)o2)cc1` (centres undefined), for which the EC50 in assay [6] and in assay [7] was > 112 µM (not active) each time.

The values above are taken from ChEMBL document CHEMBL1201862, “PubChem BioAssay data set” (2004).
